Reference: paper PMC6886798, “Expression of myeloid Src-family kinases is associated with poor prognosis in AML and influences Flt3-ITD kinase inhibitor acquired resistance” (PLoS ONE, 2019)

How the values were obtained:
Assay in all cases: KINOMEscan
Type in all cases: binding
Settings in all cases: 1.0 µM
ULK3 = molecular target: T1, ULK3 (Homo sapiens, UniProt Q6PHR2)
T1 construct: DNA tag (qPCR barcode); purchased Eurofins/DiscoverX KINOMEscan scanMAX
Experimental: (§1) Kinase retention to the immobilized ligand is then measured using quantitative real-time PCR for each kinase-specific DNA barcode.

MAP4K5 = molecular target: T2, MAP4K5 (Homo sapiens, UniProt Q9Y4K4)
T2 construct: purchased Eurofins/DiscoverX KINOMEscan scanMAX
Experimental: as §1

AMPK-alpha1 = molecular target: T3, AMPK-alpha1 (Homo sapiens, UniProt Q13131)
T3 construct: purchased Eurofins/DiscoverX KINOMEscan scanMAX
Experimental: as §1

CAMKK1 = molecular target: T4, CAMKK1 (Homo sapiens, UniProt Q8N5S9)
T4 construct: purchased Eurofins/DiscoverX KINOMEscan scanMAX
Experimental: as §1

YANK3 = molecular target: T5, YANK3 (Homo sapiens, UniProt Q86UX6)
T5 construct: purchased Eurofins/DiscoverX (KINOMEscan scanMAX service)
Experimental: as §1

SIK = molecular target: T6, SIK (Homo sapiens, UniProt P57059)
T6 construct: purchased Eurofins/DiscoverX KINOMEscan scanMAX
Experimental: as §1

CAMK4 = molecular target: T7, CAMK4 (Homo sapiens, UniProt Q16566)
T7 construct: purchased Eurofins/DiscoverX KINOMEscan scanMAX
Experimental: as §1

PFPK5(P.falciparum) = molecular target: T8, PFPK5(P.falciparum) (Plasmodium falciparum, UniProt P61075)
T8 construct: purchased Eurofins/DiscoverX KINOMEscan scanMAX
Experimental: as §1

PIK3CD = molecular target: T9, PIK3CD (Homo sapiens, UniProt O00329)
T9 construct: purchased Eurofins/DiscoverX KINOMEscan scanMAX
Experimental: as §1

CDKL5 = molecular target: T10, CDKL5 (Homo sapiens, UniProt O76039)
T10 construct: purchased Eurofins/DiscoverX KINOMEscan scanMAX
Experimental: as §1

VPS34 = molecular target: T11, VPS34 (Homo sapiens, UniProt Q8NEB9)
T11 construct: DNA tag (qPCR barcode); purchased Eurofins/DiscoverX KINOMEscan scanMAX
Experimental: as §1

p38-gamma = molecular target: T12, p38-gamma (Homo sapiens, UniProt P53778)
T12 construct: purchased Eurofins/DiscoverX KINOMEscan scanMAX
Experimental: as §1

ARK5 = molecular target: T13, ARK5 (Homo sapiens, UniProt O60285)
T13 construct: purchased Eurofins/DiscoverX KINOMEscan scanMAX
Experimental: as §1

NLK = molecular target: T14, NLK (Homo sapiens, UniProt Q9UBE8)
T14 construct: purchased Eurofins/DiscoverX KINOMEscan scanMAX
Experimental: as §1

STK33 = molecular target: T15, STK33 (Homo sapiens, UniProt Q9BYT3)
T15 construct: purchased Eurofins/DiscoverX KINOMEscan scanMAX
Experimental: as §1

CLK1 = molecular target: T16, CLK1 (Homo sapiens, UniProt P49759)
T16 construct: purchased Eurofins/DiscoverX KINOMEscan scanMAX
Experimental: as §1

SLK = molecular target: T17, SLK (Homo sapiens, UniProt Q9H2G2)
T17 construct: purchased Eurofins/DiscoverX KINOMEscan scanMAX
Experimental: as §1

BMX = molecular target: T18, BMX (Homo sapiens, UniProt P51813)
T18 construct: purchased Eurofins/DiscoverX KINOMEscan scanMAX
Experimental: as §1

MAST1 = molecular target: T19, MAST1 (Homo sapiens, UniProt Q9Y2H9)
T19 construct: purchased Eurofins/DiscoverX KINOMEscan scanMAX
Experimental: as §1

FLT1 = molecular target: T20, FLT1 (Homo sapiens, UniProt P17948)
T20 construct: purchased Eurofins/DiscoverX KINOMEscan scanMAX
Experimental: as §1

CDKL3 = molecular target: T21, CDKL3 (Homo sapiens, UniProt Q8IVW4)
T21 construct: purchased Eurofins/DiscoverX KINOMEscan scanMAX
Experimental: as §1

MAP3K3 = molecular target: T22, MAP3K3 (Homo sapiens, UniProt Q99759)
T22 construct: purchased Eurofins/DiscoverX KINOMEscan scanMAX
Experimental: as §1

MRCKB = molecular target: T23, MRCKB (Homo sapiens, UniProt Q9Y5S2)
T23 construct: purchased Eurofins/DiscoverX KINOMEscan scanMAX
Experimental: as §1

MTOR = molecular target: T24, MTOR (Homo sapiens, UniProt P42345)
T24 construct: purchased Eurofins/DiscoverX KINOMEscan scanMAX
Experimental: as §1

IKK-beta = molecular target: T25, IKK-beta (Homo sapiens, UniProt O14920)
T25 construct: purchased Eurofins/DiscoverX KINOMEscan scanMAX
Experimental: as §1

[1] = molecular target: T26, ABL1(F317L)-nonphosphorylated (Homo sapiens, UniProt P00519, F317L)
T26 construct: purchased Eurofins/DiscoverX KINOMEscan scanMAX
Experimental: as §1

[2] = molecular target: T27, RSK3(Kin.Dom.1-N-terminal) (Homo sapiens, UniProt Q15349)
T27 construct: RSK3(Kin.Dom.1-N-terminal); purchased Eurofins/DiscoverX KINOMEscan scanMAX
Experimental: as §1

CAMK2D = molecular target: T28, CAMK2D (Homo sapiens, UniProt Q13557)
T28 construct: purchased Eurofins/DiscoverX KINOMEscan scanMAX
Experimental: as §1

S6K1 = molecular target: T29, S6K1 (Homo sapiens, UniProt P23443)
T29 construct: purchased Eurofins/DiscoverX KINOMEscan scanMAX
Experimental: as §1

CDK5 = molecular target: T30, CDK5 (Homo sapiens, UniProt Q00535)
T30 construct: purchased Eurofins/DiscoverX KINOMEscan scanMAX
Experimental: as §1

CSNK2A1 = molecular target: T31, CSNK2A1 (Homo sapiens, UniProt P68400)
T31 construct: purchased Eurofins/DiscoverX KINOMEscan scanMAX
Experimental: as §1

CHEK1 = molecular target: T32, CHEK1 (Homo sapiens, UniProt O14757)
T32 construct: purchased Eurofins/DiscoverX KINOMEscan scanMAX
Experimental: as §1

DCAMKL1 = molecular target: T33, DCAMKL1 (Homo sapiens, UniProt O15075)
T33 construct: purchased Eurofins/DiscoverX KINOMEscan scanMAX
Experimental: as §1

DMPK2 = molecular target: T34, DMPK2 (Homo sapiens, UniProt Q6DT37)
T34 construct: purchased Eurofins/DiscoverX KINOMEscan scanMAX
Experimental: as §1

GRK4 = molecular target: T35, GRK4 (Homo sapiens, UniProt P32298)
T35 construct: purchased Eurofins/DiscoverX KINOMEscan scanMAX
Experimental: as §1

PKN1 = molecular target: T36, PKN1 (Homo sapiens, UniProt Q16512)
T36 construct: purchased Eurofins/DiscoverX KINOMEscan scanMAX
Experimental: as §1

PIP5K2B = molecular target: T37, PIP5K2B (Homo sapiens, UniProt P78356)
T37 construct: purchased Eurofins/DiscoverX KINOMEscan scanMAX
Experimental: as §1

TESK1 = molecular target: T38, TESK1 (Homo sapiens, UniProt Q15569)
T38 construct: purchased Eurofins/DiscoverX KINOMEscan scanMAX
Experimental: as §1

NEK3 = molecular target: T39, NEK3 (Homo sapiens, UniProt P51956)
T39 construct: purchased Eurofins/DiscoverX KINOMEscan scanMAX
Experimental: as §1

IRAK3 = molecular target: T40, IRAK3 (Homo sapiens, UniProt Q9Y616)
T40 construct: purchased Eurofins/DiscoverX KINOMEscan scanMAX
Experimental: as §1

BMPR1A = molecular target: T41, BMPR1A (Homo sapiens, UniProt P36894)
T41 construct: purchased Eurofins/DiscoverX KINOMEscan scanMAX
Experimental: as §1

JNK1 = molecular target: T42, JNK1 (Homo sapiens, UniProt P45983)
T42 construct: purchased Eurofins/DiscoverX KINOMEscan scanMAX
Experimental: as §1

T9 sequence (O00329 whole entry): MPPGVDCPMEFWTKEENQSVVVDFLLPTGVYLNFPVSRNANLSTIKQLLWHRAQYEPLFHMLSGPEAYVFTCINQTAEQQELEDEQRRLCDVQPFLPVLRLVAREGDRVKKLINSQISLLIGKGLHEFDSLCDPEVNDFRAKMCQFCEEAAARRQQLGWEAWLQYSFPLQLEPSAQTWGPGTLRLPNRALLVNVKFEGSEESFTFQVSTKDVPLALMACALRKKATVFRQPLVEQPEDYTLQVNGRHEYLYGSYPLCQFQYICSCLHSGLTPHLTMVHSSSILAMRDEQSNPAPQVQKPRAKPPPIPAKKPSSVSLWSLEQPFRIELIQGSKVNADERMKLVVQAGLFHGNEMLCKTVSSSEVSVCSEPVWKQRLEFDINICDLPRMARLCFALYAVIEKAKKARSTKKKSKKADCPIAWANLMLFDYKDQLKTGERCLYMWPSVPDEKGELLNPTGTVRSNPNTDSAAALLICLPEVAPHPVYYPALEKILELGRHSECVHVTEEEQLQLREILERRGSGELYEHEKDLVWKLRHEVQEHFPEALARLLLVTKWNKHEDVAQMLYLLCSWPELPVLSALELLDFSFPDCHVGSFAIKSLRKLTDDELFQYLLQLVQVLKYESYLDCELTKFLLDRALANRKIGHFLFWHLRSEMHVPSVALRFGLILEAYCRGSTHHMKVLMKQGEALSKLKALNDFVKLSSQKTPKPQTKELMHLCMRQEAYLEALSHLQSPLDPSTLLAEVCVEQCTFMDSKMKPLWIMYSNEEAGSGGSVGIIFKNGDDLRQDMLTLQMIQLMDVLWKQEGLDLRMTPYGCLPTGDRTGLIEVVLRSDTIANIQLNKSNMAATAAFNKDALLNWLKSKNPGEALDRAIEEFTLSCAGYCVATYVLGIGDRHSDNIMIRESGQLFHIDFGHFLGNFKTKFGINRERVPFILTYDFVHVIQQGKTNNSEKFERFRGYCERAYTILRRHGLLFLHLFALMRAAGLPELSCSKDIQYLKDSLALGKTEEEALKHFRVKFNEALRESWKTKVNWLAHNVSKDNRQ
T2 sequence (Q9Y4K4 whole entry): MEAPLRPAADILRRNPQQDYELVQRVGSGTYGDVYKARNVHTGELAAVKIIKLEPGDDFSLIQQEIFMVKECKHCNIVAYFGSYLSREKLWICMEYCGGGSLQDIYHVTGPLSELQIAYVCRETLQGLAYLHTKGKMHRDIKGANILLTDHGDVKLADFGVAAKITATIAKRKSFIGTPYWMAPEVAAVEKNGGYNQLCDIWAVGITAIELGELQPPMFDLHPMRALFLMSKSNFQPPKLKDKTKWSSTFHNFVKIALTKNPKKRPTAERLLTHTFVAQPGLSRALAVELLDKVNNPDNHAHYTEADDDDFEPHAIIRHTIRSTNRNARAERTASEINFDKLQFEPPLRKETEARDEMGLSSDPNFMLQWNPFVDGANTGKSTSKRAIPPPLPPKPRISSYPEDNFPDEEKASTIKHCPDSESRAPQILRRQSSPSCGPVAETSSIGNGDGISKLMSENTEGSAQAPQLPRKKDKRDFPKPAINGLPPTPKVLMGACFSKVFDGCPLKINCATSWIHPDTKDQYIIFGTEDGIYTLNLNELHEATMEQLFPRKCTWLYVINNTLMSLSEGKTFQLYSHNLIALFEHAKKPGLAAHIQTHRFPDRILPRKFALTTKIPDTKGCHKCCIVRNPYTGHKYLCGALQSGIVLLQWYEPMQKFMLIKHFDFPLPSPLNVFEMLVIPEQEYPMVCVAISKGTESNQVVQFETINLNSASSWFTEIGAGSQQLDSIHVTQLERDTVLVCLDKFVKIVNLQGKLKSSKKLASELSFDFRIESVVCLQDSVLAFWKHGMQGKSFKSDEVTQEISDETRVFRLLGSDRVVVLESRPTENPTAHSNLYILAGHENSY
T38 sequence (Q15569 whole entry): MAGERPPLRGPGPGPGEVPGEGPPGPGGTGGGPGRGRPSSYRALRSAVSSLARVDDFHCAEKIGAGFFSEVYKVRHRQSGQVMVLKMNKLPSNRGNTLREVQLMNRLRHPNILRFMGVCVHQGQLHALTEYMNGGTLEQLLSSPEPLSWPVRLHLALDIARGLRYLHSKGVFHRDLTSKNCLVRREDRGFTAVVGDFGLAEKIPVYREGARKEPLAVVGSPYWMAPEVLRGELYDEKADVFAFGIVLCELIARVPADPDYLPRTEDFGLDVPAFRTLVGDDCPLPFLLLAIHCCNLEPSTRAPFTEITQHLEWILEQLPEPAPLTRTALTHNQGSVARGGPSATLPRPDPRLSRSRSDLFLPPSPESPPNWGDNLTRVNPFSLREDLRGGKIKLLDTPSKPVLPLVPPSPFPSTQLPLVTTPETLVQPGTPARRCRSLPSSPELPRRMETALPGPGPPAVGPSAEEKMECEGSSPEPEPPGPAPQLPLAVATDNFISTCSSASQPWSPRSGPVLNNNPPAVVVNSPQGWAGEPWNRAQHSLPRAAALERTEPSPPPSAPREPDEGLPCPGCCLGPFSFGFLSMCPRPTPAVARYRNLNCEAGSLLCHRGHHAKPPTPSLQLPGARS
T22 sequence (Q99759 whole entry): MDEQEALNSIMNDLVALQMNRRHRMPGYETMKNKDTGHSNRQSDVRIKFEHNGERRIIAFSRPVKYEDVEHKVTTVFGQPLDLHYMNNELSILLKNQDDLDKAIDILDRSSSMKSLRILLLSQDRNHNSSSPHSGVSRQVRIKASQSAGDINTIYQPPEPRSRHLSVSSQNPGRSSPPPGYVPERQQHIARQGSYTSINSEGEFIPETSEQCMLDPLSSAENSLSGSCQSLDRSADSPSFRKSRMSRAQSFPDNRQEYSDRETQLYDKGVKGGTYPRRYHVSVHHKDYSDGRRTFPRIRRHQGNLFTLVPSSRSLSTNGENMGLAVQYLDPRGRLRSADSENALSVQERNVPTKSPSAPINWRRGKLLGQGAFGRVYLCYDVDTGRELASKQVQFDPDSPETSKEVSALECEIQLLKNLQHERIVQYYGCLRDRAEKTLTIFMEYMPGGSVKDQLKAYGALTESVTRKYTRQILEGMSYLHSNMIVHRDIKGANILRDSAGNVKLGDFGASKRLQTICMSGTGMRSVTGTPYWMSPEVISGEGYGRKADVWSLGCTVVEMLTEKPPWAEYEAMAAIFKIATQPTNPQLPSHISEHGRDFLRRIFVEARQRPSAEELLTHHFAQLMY
T20 sequence (P17948 27-1338): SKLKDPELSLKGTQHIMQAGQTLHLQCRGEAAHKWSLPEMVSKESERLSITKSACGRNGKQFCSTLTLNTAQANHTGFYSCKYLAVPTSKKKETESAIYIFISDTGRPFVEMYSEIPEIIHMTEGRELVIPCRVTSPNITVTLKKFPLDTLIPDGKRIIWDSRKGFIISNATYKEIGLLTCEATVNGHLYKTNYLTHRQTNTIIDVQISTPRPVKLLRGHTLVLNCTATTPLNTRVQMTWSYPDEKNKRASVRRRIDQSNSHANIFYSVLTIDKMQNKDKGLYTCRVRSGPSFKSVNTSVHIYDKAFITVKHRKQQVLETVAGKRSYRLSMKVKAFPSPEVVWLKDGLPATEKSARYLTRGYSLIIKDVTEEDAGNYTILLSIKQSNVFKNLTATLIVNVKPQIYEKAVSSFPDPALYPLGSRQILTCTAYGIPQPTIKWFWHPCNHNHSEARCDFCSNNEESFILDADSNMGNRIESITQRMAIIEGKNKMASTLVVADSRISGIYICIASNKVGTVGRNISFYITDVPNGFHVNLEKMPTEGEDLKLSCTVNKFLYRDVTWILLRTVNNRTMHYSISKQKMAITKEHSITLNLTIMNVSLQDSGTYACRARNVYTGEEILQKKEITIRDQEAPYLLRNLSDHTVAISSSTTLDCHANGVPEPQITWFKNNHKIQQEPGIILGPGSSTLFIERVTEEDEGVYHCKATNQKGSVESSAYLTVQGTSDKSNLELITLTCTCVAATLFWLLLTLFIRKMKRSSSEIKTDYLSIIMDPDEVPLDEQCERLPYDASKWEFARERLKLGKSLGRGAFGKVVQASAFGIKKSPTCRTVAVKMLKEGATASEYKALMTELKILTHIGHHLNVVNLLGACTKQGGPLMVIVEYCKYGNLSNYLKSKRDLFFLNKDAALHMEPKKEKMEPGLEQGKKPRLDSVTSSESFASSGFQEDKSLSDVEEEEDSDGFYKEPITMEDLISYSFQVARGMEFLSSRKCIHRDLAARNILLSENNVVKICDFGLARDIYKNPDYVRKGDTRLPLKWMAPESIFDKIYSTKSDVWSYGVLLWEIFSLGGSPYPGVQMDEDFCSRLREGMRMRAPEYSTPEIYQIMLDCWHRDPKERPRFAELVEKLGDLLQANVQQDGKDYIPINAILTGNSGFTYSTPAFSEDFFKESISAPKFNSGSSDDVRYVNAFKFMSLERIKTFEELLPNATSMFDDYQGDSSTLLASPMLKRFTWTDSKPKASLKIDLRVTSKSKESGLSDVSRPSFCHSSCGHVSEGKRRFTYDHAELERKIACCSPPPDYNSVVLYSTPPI
T40 sequence (Q9Y616 whole entry): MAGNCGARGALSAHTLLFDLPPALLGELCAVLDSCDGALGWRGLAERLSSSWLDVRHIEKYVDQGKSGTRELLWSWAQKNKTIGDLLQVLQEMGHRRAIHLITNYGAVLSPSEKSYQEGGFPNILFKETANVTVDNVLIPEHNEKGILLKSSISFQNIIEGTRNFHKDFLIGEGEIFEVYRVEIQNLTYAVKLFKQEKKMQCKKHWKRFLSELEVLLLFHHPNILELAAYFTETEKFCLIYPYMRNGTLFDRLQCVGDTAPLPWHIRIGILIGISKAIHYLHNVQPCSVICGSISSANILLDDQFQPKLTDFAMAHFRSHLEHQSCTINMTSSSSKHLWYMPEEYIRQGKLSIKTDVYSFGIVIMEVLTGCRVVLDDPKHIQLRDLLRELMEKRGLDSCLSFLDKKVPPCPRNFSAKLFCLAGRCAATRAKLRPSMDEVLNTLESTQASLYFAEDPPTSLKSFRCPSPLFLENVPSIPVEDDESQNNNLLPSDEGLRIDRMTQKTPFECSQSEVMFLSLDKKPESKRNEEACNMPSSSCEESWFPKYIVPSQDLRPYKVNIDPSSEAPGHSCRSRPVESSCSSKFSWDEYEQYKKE

## CN1CCN(C2CCC(n3cc(-c4ccc(Oc5ccccc5)cc4)c4c(N)ncnc43)CC2)CC1 (stereo not drawn) [A-419259]
ULK3
  % Control: 84%
MAP4K5
  % Control: 9.2%
AMPK-alpha1
  % Control: 43%
CAMKK1
  % Control: 100%
YANK3
  % Control: 100%
SIK
  % Control: 2.1%
CAMK4
  % Control: 100%
PFPK5(P.falciparum)
  % Control: 78%
PIK3CD
  % Control: 100%
CDKL5
  % Control: 100%
VPS34
  % Control: 63%
p38-gamma
  % Control: 100%
ARK5
  % Control: 90%
NLK
  % Control: 83%
STK33
  % Control: 30%
CLK1
  % Control: 100%
SLK
  % Control: 100%
BMX
  % Control: 30%
MAST1
  % Control: 64%
FLT1
  % Control: 29%
CDKL3
  % Control: 100%
MAP3K3
  % Control: 6.3%
MRCKB
  % Control: 100%
MTOR
  % Control: 90%
IKK-beta
  % Control: 90%
[1]
  % Control: 4.7%
[2]
  % Control: 22%
CAMK2D
  % Control: 100%
S6K1
  % Control: 27%
CDK5
  % Control: 83%
CSNK2A1
  % Control: 100%
CHEK1
  % Control: 54%
DCAMKL1
  % Control: 43%
DMPK2
  % Control: 36%
GRK4
  % Control: 100%
PKN1
  % Control: 88%
PIP5K2B
  % Control: 94%
TESK1
  % Control: 95%
NEK3
  % Control: 92%
IRAK3
  % Control: 89%
BMPR1A
  % Control: 100%
JNK1
  % Control: 95%
